{"source": "patent US20190343908A1", "about": "“Therapeutic Combination for the Treatment of Cancer” (Nerium Biotechnology Inc., priority 2011, published 2019)", "key": {"[1]": {"test_system": "MCF-7 (human breast cancer)", "assay": "Methyl-Tetrazolium viability assay, MCF-7", "assay_type": "cell-based", "design": "key: absorbance (optical density) at 570 nm, second wavelength subtracted", "description": "Three different viability assays were chosen to complement each other and yielded results dependent on concentration and cell line: the Methyl Tetrazolium dye assay, the Sulforhodamine B fluorescent dye assay, and the Crystal Violet dye assay.\n(§1) The Methyl-Tetrazolium dye assay measures the activity of enzymes in mitochondria. The dye precursor is taken up by cells, where it undergoes reduction to the purple formazan. It measures only the mitochondrial activity and, thus, it is not always a reliable indication of whether the cells themselves are alive or dead, since even a recently dead cell has […] enzyme activity in mitochondria. Intracellular glucose concentration, pH, and time before assay all affect the measurements.\n(§2) The Methyl Tetrazolium, Sulforhodamine B, and Crystal Violet assays were used to assess cell viabilities. The incubation times were 24 hours, 48 hours, and 72 hours. The Nerium oleander extract Anvirzel™ (a hot water extract of oleander obtained from Salud Integral, Honduras) was tested in concentrations ranging from 0.01 ng/mL to 10 ng/mL.\n(§3) Cells were detached by trypsinization (Trypsin-0.25% EDTA, Invitrogen, 25200-072) during the logarithmic phase of culture growth and plated in 96-well plates (18.000 cells/well) (Corning, Costar 359) in a final volume of 200 μl of medium per well. […] The absorbance was measured after 24 hours, 48 hours, and 72 hours of incubation.\n(§4) For the Methyl-Tetrazolium assay, the dye (Sigma, M2128; 5 mg/mL, diluted in phosphate-buffered saline) was added to each well and plates were incubated for 3 hours at 37° C. After the end of the incubation period, the medium was discarded and the cells were rinsed with phosphate-buffered saline. Finally, the formazan crystals were dissolved in dimethylsulphoxide (Sigma, D4540).\n(§5) The optical density of each plate was measured on a μQuant spectrophotometer and the data were analyzed with Gen5 software (μQuant Biomolecular Spectrophotometer MQX200 and Gen5™ Microplate Data Collection & Analysis software, BioTek® Instruments. Inc, April 2008). Absorbance was measured at 570 nm for all assays and a second wavelength was measured in order to subtract noise. For the Methyl-Tetrazolium assay this second wavelength was 630 nm and for the Sulforhodamine B and Crystal Violet assays it was 690 nm."}, "[2]": {"test_system": "LNCaP prostate cancer cell line", "assay": "Methyl-Tetrazolium viability assay, LNCaP", "assay_type": "cell-based, human", "settings": "for ABSORBANCE: LNCaP, 0.1 μg/mL cisplatin", "description": "as §1, §2, §3, §4, §5"}}}
{"smiles": "N.N.[Cl][Pt][Cl]", "note": "[cisplatin]", "values": [{"measurement": "MTT Average", "setting": "[1]; MCF-7, Run 2, 24 h, 0.1 μg/ml CDDP", "value": 0.263}, {"measurement": "MTT Average", "setting": "[1]; MCF-7, Run 2, 24 h, 1 μg/ml CDDP", "value": 0.027}, {"measurement": "MTT Average", "setting": "[1]; MCF-7, Run 2, 24 h, 10 μg/ml CDDP", "value": 0.124}, {"measurement": "MTT Average", "setting": "[1]; MCF-7, Run 2, 24 h, 100 μg/ml CDDP", "value": 0.029}, {"measurement": "MTT Average", "setting": "[1]; MCF-7, Run 2, 48 h, 0.1 μg/ml CDDP", "value": 0.37}, {"measurement": "MTT Average", "setting": "[1]; MCF-7, Run 2, 48 h, 1 μg/ml CDDP", "value": 0.025}, {"measurement": "MTT Average", "setting": "[1]; MCF-7, Run 2, 48 h, 10 μg/ml CDDP", "value": 0.045}, {"measurement": "MTT Average", "setting": "[1]; MCF-7, Run 2, 48 h, 100 μg/ml CDDP", "value": 0.029}, {"measurement": "MTT Average", "setting": "[1]; MCF-7, Run 2, 72 h, 0.1 μg/ml CDDP", "value": 0.39}, {"measurement": "MTT Average", "setting": "[1]; MCF-7, Run 2, 72 h, 1 μg/ml CDDP", "value": 0.038}, {"measurement": "MTT Average", "setting": "[1]; MCF-7, Run 2, 72 h, 10 μg/ml CDDP", "value": 0.028}, {"measurement": "MTT Average", "setting": "[1]; MCF-7, Run 2, 72 h, 100 μg/ml CDDP", "value": 0.013}, {"measurement": "MTT Average", "setting": "[1]; MCF-7, Run 3, 24 h, 0.1 μg/ml CDDP", "value": 0.516}, {"measurement": "MTT Average", "setting": "[1]; MCF-7, Run 3, 24 h, 1 μg/ml CDDP", "value": 0.039}, {"measurement": "MTT Average", "setting": "[1]; MCF-7, Run 3, 24 h, 10 μg/ml CDDP", "value": 0.135}, {"measurement": "MTT Average", "setting": "[1]; MCF-7, Run 3, 24 h, 100 μg/ml CDDP", "value": 0.026}, {"measurement": "MTT Average", "setting": "[1]; MCF-7, Run 3, 48 h, 0.1 μg/ml CDDP", "value": 0.525}, {"measurement": "MTT Average", "setting": "[1]; MCF-7, Run 3, 48 h, 1 μg/ml CDDP", "value": 0.041}, {"measurement": "MTT Average", "setting": "[1]; MCF-7, Run 3, 48 h, 10 μg/ml CDDP", "value": 0.03}, {"measurement": "MTT Average", "setting": "[1]; MCF-7, Run 3, 48 h, 100 μg/ml CDDP", "value": 0.032}, {"measurement": "MTT Average", "setting": "[1]; MCF-7, Run 3, 72 h, 0.1 μg/ml CDDP", "value": 0.546}, {"measurement": "MTT Average", "setting": "[1]; MCF-7, Run 3, 72 h, 1 μg/ml CDDP", "value": 0.035}, {"measurement": "MTT Average", "setting": "[1]; MCF-7, Run 3, 72 h, 10 μg/ml CDDP", "value": 0.032}, {"measurement": "MTT Average", "setting": "[1]; MCF-7, Run 3, 72 h, 100 μg/ml CDDP", "value": 0.018}, {"measurement": "MTT Average", "setting": "[1]; MCF-7 Run 1, 24 h, 0.1 μg/ml CDDP", "value": 0.574}, {"measurement": "MTT Average", "setting": "[1]; MCF-7 Run 1, 24 h, 1 μg/ml CDDP", "value": 0.066}, {"measurement": "MTT Average", "setting": "[1]; MCF-7 Run 1, 24 h, 10 μg/ml CDDP", "value": 0.194}, {"measurement": "MTT Average", "setting": "[1]; MCF-7 Run 1, 24 h, 100 μg/ml CDDP", "value": 0.034}, {"measurement": "MTT Average", "setting": "[1]; MCF-7 Run 1, 48 h, 0.1 μg/ml CDDP", "value": 0.719}, {"measurement": "MTT Average", "setting": "[1]; MCF-7 Run 1, 48 h, 1 μg/ml CDDP", "value": 0.051}, {"measurement": "MTT Average", "setting": "[1]; MCF-7 Run 1, 48 h, 10 μg/ml CDDP", "value": 0.069}, {"measurement": "MTT Average", "setting": "[1]; MCF-7 Run 1, 48 h, 100 μg/ml CDDP", "value": 0.025}, {"measurement": "MTT Average", "setting": "[1]; MCF-7 Run 1, 72 h, 0.1 μg/ml CDDP", "value": 0.788}, {"measurement": "MTT Average", "setting": "[1]; MCF-7 Run 1, 72 h, 1 μg/ml CDDP", "value": 0.048}, {"measurement": "MTT Average", "setting": "[1]; MCF-7 Run 1, 72 h, 10 μg/ml CDDP", "value": 0.047}, {"measurement": "MTT Average", "setting": "[1]; MCF-7 Run 1, 72 h, 100 μg/ml CDDP", "value": 0.023}, {"measurement": "MTT Average", "setting": "[2]; LNCaP Run 3, 24 h, 0.1 μg/ml CDDP", "value": 0.11}, {"measurement": "MTT Average", "setting": "[2]; LNCaP Run 3, 24 h, 1 μg/ml CDDP", "value": 0.008}, {"measurement": "MTT Average", "setting": "[2]; LNCaP Run 3, 24 h, 10 μg/ml CDDP", "value": 0.017}, {"measurement": "MTT Average", "setting": "[2]; LNCaP Run 3, 24 h, 100 μg/ml CDDP", "value": 0.006}, {"measurement": "MTT Average", "setting": "[2]; LNCaP Run 3, 48 h, 0.1 μg/ml CDDP", "value": 0.157}, {"measurement": "MTT Average", "setting": "[2]; LNCaP Run 3, 48 h, 1 μg/ml CDDP", "value": 0.011}, {"measurement": "MTT Average", "setting": "[2]; LNCaP Run 3, 48 h, 10 μg/ml CDDP", "value": 0.009}, {"measurement": "MTT Average", "setting": "[2]; LNCaP Run 3, 48 h, 100 μg/ml CDDP", "value": 0.009}, {"measurement": "MTT Average", "setting": "[2]; LNCaP Run 3, 72 h, 0.1 μg/ml CDDP", "value": 0.171}, {"measurement": "MTT Average", "setting": "[2]; LNCaP Run 3, 72 h, 1 μg/ml CDDP", "value": 0.01}, {"measurement": "MTT Average", "setting": "[2]; LNCaP Run 3, 72 h, 10 μg/ml CDDP", "value": 0.009}, {"measurement": "MTT Average", "setting": "[2]; LNCaP Run 3, 72 h, 100 μg/ml CDDP", "value": 0.008}, {"measurement": "ABSORBANCE", "setting": "[2]; 48 h", "value": 0.161}, {"measurement": "ABSORBANCE", "setting": "[2]; 72 h", "value": 0.17}, {"measurement": "Average MTT 24 h", "setting": "[2]; Run 1, 0.1 μg/ml CDDP", "value": 0.061}, {"measurement": "Average MTT 48 h", "setting": "[2]; Run 1, 0.1 μg/ml CDDP", "value": 0.116}, {"measurement": "Average MTT 24 h", "setting": "[2]; Run 1, 1 μg/ml CDDP", "value": 0.012}, {"measurement": "Average MTT 48 h", "setting": "[2]; Run 1, 1 μg/ml CDDP", "value": 0.015}, {"measurement": "Average MTT 72 h", "setting": "[2]; Run 1, 1 μg/ml CDDP", "value": 0.016}, {"measurement": "Average MTT 24 h", "setting": "[2]; Run 1, 10 μg/ml CDDP", "value": 0.02}, {"measurement": "Average MTT 48 h", "setting": "[2]; Run 1, 10 μg/ml CDDP", "value": 0.011}, {"measurement": "Average MTT 72 h", "setting": "[2]; Run 1, 10 μg/ml CDDP", "value": 0.01}, {"measurement": "Average MTT 24 h", "setting": "[2]; Run 1, 100 μg/ml CDDP", "value": 0.011}, {"measurement": "Average MTT 48 h", "setting": "[2]; Run 1, 100 μg/ml CDDP", "value": 0.017}, {"measurement": "Average MTT 72 h", "setting": "[2]; Run 1, 100 μg/ml CDDP", "value": 0.01}, {"measurement": "Average MTT 24 h", "setting": "[2]; Run 2, 0.1 μg/ml CDDP", "value": 0.136}, {"measurement": "Average MTT 48 h", "setting": "[2]; Run 2, 0.1 μg/ml CDDP", "value": 0.161}, {"measurement": "Average MTT 72 h", "setting": "[2]; Run 2, 0.1 μg/ml CDDP", "value": 0.17}, {"measurement": "Average MTT 24 h", "setting": "[2]; Run 2, 1 μg/ml CDDP", "value": 0.01}, {"measurement": "Average MTT 48 h", "setting": "[2]; Run 2, 1 μg/ml CDDP", "value": 0.016}, {"measurement": "Average MTT 72 h", "setting": "[2]; Run 2, 1 μg/ml CDDP", "value": 0.026}, {"measurement": "Average MTT 24 h", "setting": "[2]; Run 2, 10 μg/ml CDDP", "value": 0.014}, {"measurement": "Average MTT 48 h", "setting": "[2]; Run 2, 10 μg/ml CDDP", "value": 0.015}, {"measurement": "Average MTT 72 h", "setting": "[2]; Run 2, 10 μg/ml CDDP", "value": 0.012}, {"measurement": "Average MTT 24 h", "setting": "[2]; Run 2, 100 μg/ml CDDP", "value": 0.017}, {"measurement": "Average MTT 48 h", "setting": "[2]; Run 2, 100 μg/ml CDDP", "value": 0.015}, {"measurement": "Average MTT 72 h", "setting": "[2]; Run 2, 100 μg/ml CDDP", "value": 0.012}]}
